Reference: ChEMBL document CHEMBL3758169, “4-Aminoindazolyl-dihydrofuro[3,4-d]pyrimidines as non-covalent inhibitors of mutant epidermal growth factor receptor tyrosine kinase” (Bioorg Med Chem Lett, 2016)
Values belong to the molecule of their own block, whether it stands above or below them.

Columns and labels:
[1] = test system: RAF proto-oncogene serine/threonine-protein kinase (Homo sapiens), P04049 [Y340D,Y341D]; test: Inhibition of RAF1 Y340D/Y341D double mutant (unknown origin) at 100 nM
[2] = target: Epidermal growth factor receptor (Homo sapiens, UniProt P00533, L858R/T790M); test: Inhibition of EGFR T790M/L858R mutant (unknown origin); type: protein assay
[3] = target: High affinity nerve growth factor receptor (Homo sapiens) (UniProt P04629); test: Inhibition of TRKA (unknown origin) at 100 nM
[4] = target: T1, Epidermal growth factor receptor (Homo sapiens, UniProt P00533); test: Inhibition of wild type EGFR (unknown origin)
Target sequence in this assay (P00533 whole entry): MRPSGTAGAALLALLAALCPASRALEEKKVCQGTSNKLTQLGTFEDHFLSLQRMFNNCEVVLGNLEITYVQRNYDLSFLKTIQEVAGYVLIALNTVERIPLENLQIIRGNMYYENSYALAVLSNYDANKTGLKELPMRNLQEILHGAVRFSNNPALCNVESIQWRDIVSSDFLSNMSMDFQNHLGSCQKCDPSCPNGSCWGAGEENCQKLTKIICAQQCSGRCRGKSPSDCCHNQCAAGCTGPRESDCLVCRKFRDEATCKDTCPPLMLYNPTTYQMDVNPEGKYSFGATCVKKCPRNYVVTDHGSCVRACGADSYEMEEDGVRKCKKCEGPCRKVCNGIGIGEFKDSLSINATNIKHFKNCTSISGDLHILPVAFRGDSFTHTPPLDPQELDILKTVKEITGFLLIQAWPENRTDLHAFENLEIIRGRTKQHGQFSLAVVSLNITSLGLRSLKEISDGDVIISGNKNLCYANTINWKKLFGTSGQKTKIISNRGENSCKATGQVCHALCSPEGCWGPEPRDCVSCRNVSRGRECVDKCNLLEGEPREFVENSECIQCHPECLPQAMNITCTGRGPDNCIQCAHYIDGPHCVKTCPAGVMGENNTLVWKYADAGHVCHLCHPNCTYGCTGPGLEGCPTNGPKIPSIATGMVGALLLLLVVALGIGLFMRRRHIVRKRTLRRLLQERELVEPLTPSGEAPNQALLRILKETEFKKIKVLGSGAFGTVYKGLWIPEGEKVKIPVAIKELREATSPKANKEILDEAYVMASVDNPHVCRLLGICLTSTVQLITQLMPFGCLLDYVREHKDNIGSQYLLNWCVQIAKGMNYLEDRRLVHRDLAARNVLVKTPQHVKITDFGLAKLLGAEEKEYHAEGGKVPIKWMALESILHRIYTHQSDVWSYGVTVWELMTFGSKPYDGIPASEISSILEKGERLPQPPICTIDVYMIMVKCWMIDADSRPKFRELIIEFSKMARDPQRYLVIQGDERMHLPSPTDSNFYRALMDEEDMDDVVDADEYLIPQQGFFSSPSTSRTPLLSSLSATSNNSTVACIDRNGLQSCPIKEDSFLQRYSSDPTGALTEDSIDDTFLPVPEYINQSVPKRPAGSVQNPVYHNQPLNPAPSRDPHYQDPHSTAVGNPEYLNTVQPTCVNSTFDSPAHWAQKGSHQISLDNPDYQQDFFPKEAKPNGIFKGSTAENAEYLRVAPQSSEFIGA

[5] = target: RAC-alpha serine/threonine-protein kinase (Homo sapiens) (UniProt P31749); test: Inhibition of AKT1 (unknown origin) at 100 nM
[6] = target: Mitogen-activated protein kinase 1 (Homo sapiens) (UniProt P28482); test: Inhibition of ERK2 (unknown origin) at 100 nM
[7] = target: SRSF protein kinase 2 (Homo sapiens) (UniProt P78362); test: Inhibition of SRPK2 (unknown origin) at 100 nM
[8] = target: MAP kinase-activated protein kinase 2 (Homo sapiens) (UniProt P49137); test: Inhibition of MAPKAPK2 (unknown origin) at 100 nM
[9] = target: Serine/threonine-protein kinase Nek1 (Homo sapiens) (UniProt Q96PY6); test: Inhibition of NEK1 (unknown origin) at 100 nM
[10] = target: Non-receptor tyrosine-protein kinase TYK2 (Homo sapiens) (UniProt P29597); test: Inhibition of TYK2 (unknown origin) at 100 nM
[11] = target: Tyrosine-protein kinase JAK1 (Homo sapiens) (UniProt P23458); test: Inhibition of JAK1 (unknown origin) at 100 nM
[12] = target: Glycogen synthase kinase-3 beta (Homo sapiens) (UniProt P49841); test: Inhibition of GSK3beta (unknown origin) at 100 nM
[13] = Efflux ratio of permeability from basolateral to apical side over apical to basolateral side in MDCK cells; type: ADME, cell-based, Canis lupus familiaris; settings: dog
[14] = test system: Epidermal growth factor receptor (Homo sapiens), P00533 [L858R,T790M]; test: Inhibition of EGFR T790M/L858R double mutant (unknown origin) at 100 nM; type: protein assay
[15] = target: Serine/threonine-protein kinase mTOR (Homo sapiens) (UniProt P42345); test: Inhibition of mTOR (unknown origin) at 100 nM
[16] = target: Tyrosine-protein kinase Yes (Homo sapiens) (UniProt P07947); test: Inhibition of YES (unknown origin) at 100 nM
[17] = target: Casein kinase I isoform alpha (Homo sapiens) (UniProt P48729); test: Inhibition of CK1alpha1 (unknown origin) at 100 nM
[18] = target: Serine/threonine-protein kinase Chk1 (Homo sapiens) (UniProt O14757); test: Inhibition of CHK1 (unknown origin) at 100 nM
[19] = target: Tyrosine-protein kinase Fyn (Homo sapiens) (UniProt P06241); test: Inhibition of FYN (unknown origin) at 100 nM
[20] = target: Cyclin-dependent kinase 5/CDK5 activator 1 (Homo sapiens) (UniProt Q00535+Q15078); test: Inhibition of CDK5/p25 (unknown origin) at 100 nM; type: protein-complex assay
[21] = target: Mitogen-activated protein kinase kinase kinase 8 (Homo sapiens) (UniProt P41279); test: Inhibition of COT (unknown origin) at 100 nM
[22] = target: Receptor-type tyrosine-protein kinase FLT3 (Homo sapiens) (UniProt P36888); test: Inhibition of FLT3 (unknown origin) at 100 nM
[23] = Plasma clearance in iv dosed rat; type: ADME, organism-based
[24] = target: Tyrosine-protein kinase Lyn (Homo sapiens) (UniProt P07948); test: Inhibition of LYN (unknown origin) at 100 nM
[25] = target: T1, Epidermal growth factor receptor; test: Inhibition of EGFR T790M/deletion (746 to 750 residues) mutant (unknown origin); type: protein assay
[26] = target: Aurora kinase B (Homo sapiens) (UniProt Q96GD4); test: Inhibition of Aurora B (unknown origin) at 100 nM
[27] = target: Tyrosine-protein kinase ABL1 (Homo sapiens) (UniProt P00519); test: Inhibition of ABL (unknown origin) at 100 nM
Homo sapiens [28] = organism: Homo sapiens; test: Inhibition of PKA (unknown origin) at 100 nM
[29] = target: Ribosomal protein S6 kinase beta-1 (Homo sapiens) (UniProt P23443); test: Inhibition of p70S6K(unknown origin) at 100 nM
[30] = target: CDK2/Cyclin A2 (Homo sapiens) (UniProt P24941+P20248); test: Inhibition of CDK2/cyclinA (unknown origin) at 100 nM; type: protein-complex assay
[31] = target: Tyrosine-protein kinase ITK/TSK (Homo sapiens) (UniProt Q08881); test: Inhibition of ITK (unknown origin) at 100 nM
[32] = target: Inhibitor of nuclear factor kappa-B kinase subunit beta (Homo sapiens) (UniProt O14920); test: Inhibition of IKKbeta (unknown origin) at 100 nM
[33] = target: Tyrosine-protein kinase Lck (Homo sapiens) (UniProt P06239); test: Inhibition of LCK (unknown origin) at 100 nM
[34] = target: Vascular endothelial growth factor receptor 2 (Homo sapiens) (UniProt P35968); test: Inhibition of KDR (unknown origin) at 100 nM
[35] = target: CDK8/Cyclin C (Homo sapiens) (UniProt P49336+P24863); test: Inhibition of CDK8/cyclinC (unknown origin) at 100 nM; type: protein-complex assay
[36] = target: Mast/stem cell growth factor receptor Kit (Homo sapiens) (UniProt P10721); test: Inhibition of KIT (unknown origin) at 100 nM
[37] = target: Tyrosine-protein kinase JAK2 (Homo sapiens) (UniProt O60674); test: Inhibition of JAK2 (unknown origin) at 100 nM
[38] = target: Rho-associated protein kinase 1 (Homo sapiens) (UniProt Q13464); test: Inhibition of ROCK1 (unknown origin) at 100 nM
[39] = target: Mitogen-activated protein kinase 8 (Homo sapiens) (UniProt P45983); test: Inhibition of JNK1 alpha1 (unknown origin) at 100 nM
Homo sapiens [40] = organism: Homo sapiens; test: Inhibition of MKK6 S207E/T211E double mutant (unknown origin) at 100 nM
[41] = target: Fibroblast growth factor receptor 2 (Homo sapiens) (UniProt P21802); test: Inhibition of FGFR2 (unknown origin) at 100 nM
[42] = target: Activin receptor type-2B (Homo sapiens) (UniProt Q13705); test: Inhibition of ACVR2B (unknown origin) at 100 nM
[43] = target: Muscle, skeletal receptor tyrosine-protein kinase (Homo sapiens) (UniProt O15146); test: Inhibition of MUSK (unknown origin) at 100 nM
[44] = target: BDNF/NT-3 growth factors receptor (Homo sapiens) (UniProt Q16620); test: Inhibition of TRKB (unknown origin) at 100 nM

Chain of Tyrosine-protein kinase ITK/TSK (Homo sapiens) (Q08881 whole entry): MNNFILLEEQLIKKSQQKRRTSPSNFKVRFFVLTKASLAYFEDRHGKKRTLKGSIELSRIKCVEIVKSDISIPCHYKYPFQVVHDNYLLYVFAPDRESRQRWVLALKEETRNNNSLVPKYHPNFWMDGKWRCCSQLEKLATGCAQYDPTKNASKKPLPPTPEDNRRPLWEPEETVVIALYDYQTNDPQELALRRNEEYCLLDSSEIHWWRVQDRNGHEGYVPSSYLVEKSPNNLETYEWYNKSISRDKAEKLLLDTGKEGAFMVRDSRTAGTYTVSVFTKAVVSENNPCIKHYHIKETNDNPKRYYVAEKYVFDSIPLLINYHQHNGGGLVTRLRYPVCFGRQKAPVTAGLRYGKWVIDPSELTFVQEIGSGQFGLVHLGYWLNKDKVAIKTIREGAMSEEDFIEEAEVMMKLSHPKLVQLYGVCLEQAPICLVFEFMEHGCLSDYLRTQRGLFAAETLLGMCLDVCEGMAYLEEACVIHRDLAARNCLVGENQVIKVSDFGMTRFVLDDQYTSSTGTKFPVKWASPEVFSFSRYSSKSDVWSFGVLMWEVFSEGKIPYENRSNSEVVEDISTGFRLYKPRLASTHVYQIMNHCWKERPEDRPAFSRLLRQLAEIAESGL
Chain of Receptor-type tyrosine-protein kinase FLT3 (Homo sapiens) (P36888 whole entry): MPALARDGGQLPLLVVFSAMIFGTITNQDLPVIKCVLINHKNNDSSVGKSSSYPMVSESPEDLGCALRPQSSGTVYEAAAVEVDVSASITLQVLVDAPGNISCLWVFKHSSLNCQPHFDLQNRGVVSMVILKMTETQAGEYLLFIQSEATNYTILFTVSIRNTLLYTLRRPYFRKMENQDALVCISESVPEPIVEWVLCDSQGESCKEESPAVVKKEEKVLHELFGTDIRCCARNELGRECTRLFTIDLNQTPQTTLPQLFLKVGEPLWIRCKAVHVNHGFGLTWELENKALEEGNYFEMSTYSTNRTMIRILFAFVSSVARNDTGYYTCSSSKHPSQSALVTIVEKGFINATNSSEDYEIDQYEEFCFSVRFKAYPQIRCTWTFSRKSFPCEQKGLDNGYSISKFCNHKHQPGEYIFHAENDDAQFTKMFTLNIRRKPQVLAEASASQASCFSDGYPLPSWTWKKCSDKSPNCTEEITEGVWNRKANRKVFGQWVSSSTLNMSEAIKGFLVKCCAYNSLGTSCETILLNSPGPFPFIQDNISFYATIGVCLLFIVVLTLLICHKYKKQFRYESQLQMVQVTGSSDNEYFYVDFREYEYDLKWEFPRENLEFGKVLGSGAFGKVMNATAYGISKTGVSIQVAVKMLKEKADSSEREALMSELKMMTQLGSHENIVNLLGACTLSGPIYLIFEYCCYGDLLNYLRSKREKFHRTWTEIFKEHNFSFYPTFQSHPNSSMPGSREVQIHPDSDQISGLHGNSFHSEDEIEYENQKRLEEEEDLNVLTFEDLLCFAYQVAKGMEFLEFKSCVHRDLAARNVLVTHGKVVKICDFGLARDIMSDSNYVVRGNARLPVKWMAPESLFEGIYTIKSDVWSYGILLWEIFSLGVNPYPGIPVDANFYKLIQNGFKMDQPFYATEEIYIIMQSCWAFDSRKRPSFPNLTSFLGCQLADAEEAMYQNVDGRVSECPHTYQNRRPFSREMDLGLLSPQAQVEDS
Chain of High affinity nerve growth factor receptor (Homo sapiens) (P04629 33-796 limits assumed): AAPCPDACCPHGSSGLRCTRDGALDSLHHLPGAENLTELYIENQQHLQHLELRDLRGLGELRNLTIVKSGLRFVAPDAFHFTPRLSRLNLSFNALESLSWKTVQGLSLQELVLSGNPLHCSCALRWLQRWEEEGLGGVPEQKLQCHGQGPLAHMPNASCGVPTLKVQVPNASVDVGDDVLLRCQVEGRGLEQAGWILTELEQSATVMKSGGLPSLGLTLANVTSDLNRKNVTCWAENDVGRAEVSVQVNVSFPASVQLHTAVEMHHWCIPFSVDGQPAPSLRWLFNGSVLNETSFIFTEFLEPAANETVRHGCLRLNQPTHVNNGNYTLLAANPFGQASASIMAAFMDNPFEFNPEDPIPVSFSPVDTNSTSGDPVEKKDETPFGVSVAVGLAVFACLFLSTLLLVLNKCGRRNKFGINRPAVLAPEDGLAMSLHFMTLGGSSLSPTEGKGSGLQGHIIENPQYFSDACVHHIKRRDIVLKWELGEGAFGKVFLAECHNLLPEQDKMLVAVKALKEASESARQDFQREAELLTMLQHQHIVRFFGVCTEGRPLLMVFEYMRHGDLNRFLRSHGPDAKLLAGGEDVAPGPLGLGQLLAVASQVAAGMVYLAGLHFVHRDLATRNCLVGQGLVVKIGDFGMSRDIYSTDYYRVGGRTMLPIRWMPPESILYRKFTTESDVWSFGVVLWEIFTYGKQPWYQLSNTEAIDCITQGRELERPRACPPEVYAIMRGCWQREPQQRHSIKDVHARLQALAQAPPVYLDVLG
Chain of Tyrosine-protein kinase Lyn (Homo sapiens) (P07948 2-512 limits assumed): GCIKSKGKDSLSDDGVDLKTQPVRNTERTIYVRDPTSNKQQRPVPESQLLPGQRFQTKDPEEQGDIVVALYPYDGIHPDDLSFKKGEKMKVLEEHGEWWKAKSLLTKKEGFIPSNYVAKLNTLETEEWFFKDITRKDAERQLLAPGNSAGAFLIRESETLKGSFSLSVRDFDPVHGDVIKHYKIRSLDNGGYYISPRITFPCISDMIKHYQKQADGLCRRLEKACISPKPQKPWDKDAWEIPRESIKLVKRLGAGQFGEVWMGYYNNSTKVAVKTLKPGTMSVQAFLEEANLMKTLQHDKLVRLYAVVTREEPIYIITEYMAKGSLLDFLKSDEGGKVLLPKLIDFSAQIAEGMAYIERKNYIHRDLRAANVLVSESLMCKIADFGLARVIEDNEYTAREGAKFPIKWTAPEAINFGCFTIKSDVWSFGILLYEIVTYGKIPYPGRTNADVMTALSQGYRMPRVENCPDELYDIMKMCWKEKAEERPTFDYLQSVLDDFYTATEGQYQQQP
Chain of Inhibitor of nuclear factor kappa-B kinase subunit beta (Homo sapiens) (O14920 whole entry): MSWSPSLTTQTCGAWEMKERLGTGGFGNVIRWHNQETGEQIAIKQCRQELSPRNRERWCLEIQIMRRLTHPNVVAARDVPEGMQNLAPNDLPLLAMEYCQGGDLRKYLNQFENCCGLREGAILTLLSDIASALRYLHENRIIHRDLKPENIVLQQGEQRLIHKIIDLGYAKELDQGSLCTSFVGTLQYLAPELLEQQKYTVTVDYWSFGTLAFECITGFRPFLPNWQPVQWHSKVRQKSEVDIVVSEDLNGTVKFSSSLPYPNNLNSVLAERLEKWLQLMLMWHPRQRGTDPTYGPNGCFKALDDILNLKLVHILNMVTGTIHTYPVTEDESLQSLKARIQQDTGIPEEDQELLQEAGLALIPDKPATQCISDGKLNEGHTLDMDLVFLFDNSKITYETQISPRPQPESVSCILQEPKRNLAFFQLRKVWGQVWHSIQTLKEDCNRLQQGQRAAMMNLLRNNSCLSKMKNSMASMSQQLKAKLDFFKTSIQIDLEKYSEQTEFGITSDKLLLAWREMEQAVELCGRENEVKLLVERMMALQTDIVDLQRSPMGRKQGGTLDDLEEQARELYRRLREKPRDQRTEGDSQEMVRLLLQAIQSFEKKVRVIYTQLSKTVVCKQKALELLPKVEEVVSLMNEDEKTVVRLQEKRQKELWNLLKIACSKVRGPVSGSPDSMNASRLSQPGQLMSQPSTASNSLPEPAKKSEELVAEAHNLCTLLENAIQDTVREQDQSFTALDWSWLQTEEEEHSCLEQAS

- inhibition [1]: 25.3%
- Ki [2]: 2 nM
- inhibition [3]: 12.6%
- Ki [4]: 1.5 nM
- inhibition [5]: 11.1%
- inhibition [6]: -3.5%
- inhibition [7]: 12.6%
- inhibition [8]: 2.1%
- inhibition [9]: -4%
- inhibition [10]: 2%
- inhibition [11]: 3.5%
- inhibition [12]: 61%
- efflux ratio [13]: 1.6
- inhibition [14]: 91.5%
- inhibition [15]: 8.7%
- inhibition [16]: 94.6%
- inhibition [17]: -3.3%
- inhibition [18]: 5.3%
- inhibition [19]: 82%
- inhibition [20]: 7.8%
- inhibition [21]: 7.4%
- inhibition [22]: 67.3%
- clearance [23]: 74 mL/min/kg
- inhibition [24]: 94%
- Ki [25]: 1.3 nM
- inhibition [26]: 16.4%
- inhibition [27]: 35.3%
- inhibition (Homo sapiens [28]): 88.7%
- inhibition [29]: 10.4%
- inhibition [30]: 5.3%
- inhibition [31]: 2%
- inhibition [32]: 7%
- inhibition [33]: 86.9%
- inhibition [34]: 99.3%
- inhibition [35]: 11.7%
- inhibition [36]: 4.8%
- inhibition [37]: 8.8%
- inhibition [38]: 2.3%
- inhibition [39]: 4.1%
SMILES: CC1(C)OCc2c(Nc3n[nH]c4c(Cl)cccc34)nc(-c3cn[nH]c3)nc21

- inhibition [1]: 16.6%
- Ki [2]: 2 nM
- inhibition [3]: 10.2%
- Ki [4]: 0.6 nM
- inhibition [5]: 3.5%
- inhibition [6]: 1.2%
- inhibition [7]: -8.1%
- inhibition (Homo sapiens [40]): 10.2%
- inhibition [8]: 1.9%
- inhibition [9]: 6.8%
- inhibition [10]: 4.9%
- inhibition [11]: 7.7%
- inhibition [12]: 41.9%
- efflux ratio [13]: 2.4
- inhibition [14]: 95.9%
- inhibition [41]: 54%
- inhibition [15]: -1.6%
- inhibition [16]: 88.1%
- inhibition [17]: 6.9%
- inhibition [18]: 2.7%
- inhibition [19]: 79.6%
- inhibition [42]: 96.8%
- inhibition [20]: 0%
- inhibition [43]: 3.5%
- inhibition [21]: 9.1%
- inhibition [22]: 16.5%
- clearance [23]: 86 mL/min/kg
- inhibition [24]: 89.9%
- Ki [25]: 1.6 nM
- inhibition [26]: -2.5%
- inhibition [27]: 54.1%
- inhibition (Homo sapiens [28]): 78.8%
- inhibition [29]: 4.3%
- inhibition [30]: 1.9%
- inhibition [31]: 4%
- inhibition [32]: 4.8%
- inhibition [33]: 50.6%
- inhibition [34]: 97.2%
- inhibition [35]: 7.9%
- inhibition [36]: 13.3%
- inhibition [37]: 9.8%
- inhibition [44]: -1.4%
- inhibition [38]: 0.8%
- inhibition [39]: -9.9%
SMILES: CC1(C)OCc2c(Nc3n[nH]c4ccccc34)nc(-c3cn[nH]c3)nc21
